The text below walks through data of patent US20260042764A1, “COMPOSITIONS AND METHODS FOR INHIBITION OF KRAS” (TheRas, Inc., priority 2022, published 2026).

Test [1] concerns AsPC-1 cells (KRAS G12D). The test can be described thus: Cell-based pERK HTRF assay in AsPC-1 cells (Biological Example 5). As to conditions: Homo sapiens, ASPC1, AsPC-1 (KRAS G12D) cells. Summed up: (§1)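 To gauge disruption of KRAS-driven signalling, pERK1/2 (Thr202/Tyr204) was quantified by time-resolved FRET in lysates of cells exposed 2 h at 37° C to a 9-point dose series. Signal ratio 665/620 nm was converted to % pERK for four-parameter EC50 fitting.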

In test [2] the test system is SW1900 cells (KRAS G12D). The test can be described thus: Cell-based pERK HTRF assay in SW1900 cells (Biological Example 5). The settings on record: Homo sapiens, SW1990, SW1990 cells (text: SW1900, KRAS G12D). Summed up:
as §1

Test [3] deals with HPAC cells (KRAS G12D). The test is described as follows: Cell-based pERK HTRF assay in HPAC cells (Biological Example 5). The settings on record: Homo sapiens, HPAC. Summed up:
as §1

Test [4] deals with Capan-2 cells (KRAS G12V). The test can be described thus: Cell-based pERK HTRF assay in Capan-2 cells (Biological Example 5). The settings on record: Homo sapiens, Capan-2, Capan-2 (KRAS G12V) cells. The procedure, abridged: as §1
Test [5] concerns RKN cells (KRAS G12V). The test is described as follows: Cell-based pERK HTRF assay in RKN cells (Biological Example 5). The procedure, abridged:
as §1

In test [6] the test system is H358 cells (KRAS G12C). The test can be described thus: Cell-based pERK HTRF assay in H358 cells (Biological Example 5). The settings on record: Homo sapiens, NCI-H358, H358 (KRAS G12C) cells. The procedure, abridged:
as §1

The subject of a further test is HCT116 cells (KRAS G13D). The test is described as follows: Cell-based pERK HTRF assay in HCT116 cells (Biological Example 5). As to conditions: Homo sapiens, HCT-116. Summed up: as §1
The next test has as its system KP-2 cells (KRAS G12R). The test can be described thus: Cell-based pERK HTRF assay in KP-2 cells (Biological Example 5). The settings on record: KP-2 (KRAS G12R) cells. The procedure, abridged:
as §1

Another test deals with H1573 cells (KRAS G12A). The test is described as follows: Cell-based pERK HTRF assay in H1573 cells (Biological Example 5). As to conditions: Homo sapiens, NCI-H1573. The procedure, abridged: as §1
Test [7] has as its system MKN1 cells (KRAS amplification). The test can be described thus: Cell-based pERK HTRF assay in MKN1 cells (Biological Example 5). As to conditions: Homo sapiens, MKN-1, MKN cells (MKN1, KRAS amplification). The procedure, abridged:
as §1

Test [8] relates to AsPC-1 cells (KRAS G12D). The test can be described thus: 3D Cell viability assay in AsPC-1 cells (Biological Example 6). As to conditions: Homo sapiens, ASPC1; AsPC-1 (KRAS G12D) spheroids, 72 hours. Type of test: cell-based. Summed up: (§2)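 Luminescent ATP read-out (CellTiter-Glo 3D) after 72 h compound exposure gives viability of preformed spheroids. Cells were seeded at 1000 per well in low-attachment plates and left 48 h to aggregate before dosing with nine three-fold concentrations at 0.25% DMSO.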

For test [9], the system named is SW1900 cells (KRAS G12D). The test can be described thus: 3D Cell viability assay in SW1900 cells (Biological Example 6). In kind it is cell-based. As to conditions: Homo sapiens; SW1990 (text: SW1900, KRAS G12D) spheroids, 72 hours. The procedure, abridged:
as §2

In test [10] the test system is HPAC cells (KRAS G12D). The test can be described thus: 3D Cell viability assay in HPAC cells (Biological Example 6). Type of test: cell-based. As to conditions: Homo sapiens, HPAC, 72 h, HPAC (KRAS G12D) spheroids. Summed up: as §2
Test [11] has as its system Capan-2 cells (KRAS G12V). The test can be described thus: 3D Cell viability assay in Capan-2 cells (Biological Example 6). In kind it is cell-based. The settings on record: Homo sapiens; Capan-2 (KRAS G12V) spheroids, 72 hours. The procedure, abridged:
as §2

Test [12] has as its system RKN cells (KRAS G12V). The test can be described thus: 3D Cell viability assay in RKN cells (Biological Example 6). In kind it is cell-based. As to conditions: RKN (KRAS G12V) spheroids, 72 hours. The procedure, abridged:
as §2

The subject of test [13] is H358 cells (KRAS G12C). The test can be described thus: 3D Cell viability assay in H358 cells (Biological Example 6). In kind it is cell-based. The settings on record: Homo sapiens, NCI-H358; H358 (KRAS G12C) spheroids, 72 hours. The procedure, abridged:
as §2

In test [14] the test system is MKN1 cells (KRAS amplification). The test is described as follows: 3D Cell viability assay in MKN1 cells (Biological Example 6). The settings on record: Homo sapiens, MKN-1; MKN (MKN1, KRAS amplification) spheroids, 72 hours. In kind it is cell-based. The procedure, abridged:
as §2

The test system of the next test is HT1080 cells (NRAS). The test can be described thus: 3D Cell viability assay in HT1080 cells (Biological Example 6). The settings on record: Homo sapiens, HT-1080; HT1080 (NRAS) spheroids, 72 hours. In kind it is cell-based. The procedure, abridged: as §2

A value given as a limit tells only on which side of the number the result lay.

For the compound `CCN(c1nc(OC[C@@]23CCCN2C[C@H](F)C3)nc2c(F)c(-c3ccc(F)c4sc(N)c(C#N)c34)c(C(F)(F)F)cc12)[C@H]1CCN(C(=O)C(C)C)C1` (single isomer, unassigned) [Compound 469], the IC50 in the test on AsPC-1 cells (KRAS G12D) [1] is not above 100 nM; in the test on SW1900 cells (KRAS G12D) [2], not above 100 nM; in the test on HPAC cells (KRAS G12D) [3] it was 100 to 1000 nM; in test [4], not above 100 nM; in the test with RKN cells (KRAS G12V) [5] it was not above 100 nM; with H358 cells (KRAS G12C) [6], not above 100 nM. The IC50 with HCT116 cells (KRAS G13D) is not above 100 nM; in the test on KP-2 cells (KRAS G12R), 100 to 1000 nM; in the test on H1573 cells (KRAS G12A), not above 100 nM; in test [7], not above 100 nM; in the test on AsPC-1 cells (KRAS G12D) [8], not above 100 nM; in the test with SW1900 cells (KRAS G12D) [9], not above 100 nM. Also, the IC50 in the test with HPAC cells (KRAS G12D) [10] was not above 100 nM; in test [11] it was not above 100 nM; in the test with RKN cells (KRAS G12V) [12] it was not above 100 nM; in the test on H358 cells (KRAS G12C) [13], not above 100 nM; in test [14] it was not above 100 nM; in the test with HT1080 cells (NRAS) it was more than 1000 nM.

Take `CCN(c1nc(OC[C@@]23CCCN2C[C@H](F)C3)nc2c(F)c(-c3ccc(F)c4sc(N)c(C#N)c34)c(C(F)(F)F)cc12)[C@H]1CCN(C(=O)OC)C1` (atropisomer, axis not shown) [Compound 541, methyl(3S)-3-[[7-(2-amino-3-cyano-7-fluoro-benzothiophen-4-yl)-8-fluoro-2-[[(2R,8S)-2-fluoro-1,2,3,5,6,7-hexahydropyrrolizin-8-yl]methoxy]-6-(trifluoromethyl)quinazolin-4-yl]-ethyl-amino]pyrrolidine-1-carboxylate]: the IC50 (in the test with AsPC-1 cells (KRAS G12D) [1]; in the test on SW1900 cells (KRAS G12D) [2]; in the test on HPAC cells (KRAS G12D) [3]; in test [4]; in the test with RKN cells (KRAS G12V) [5]; in the test with H358 cells (KRAS G12C) [6]) was not above 100 nM throughout. Besides, the IC50 in the test with HCT116 cells (KRAS G13D) is not above 100 nM; with KP-2 cells (KRAS G12R), 100 to 1000 nM; in the test on H1573 cells (KRAS G12A), not above 100 nM; in [7], not above 100 nM; in the test with AsPC-1 cells (KRAS G12D) [8], not above 100 nM; in the test on SW1900 cells (KRAS G12D) [9] it was not above 100 nM. Besides, the IC50 in the test on HPAC cells (KRAS G12D) [10] is not above 100 nM; in test [11], not above 100 nM; in the test on RKN cells (KRAS G12V) [12] it was not above 100 nM; with H358 cells (KRAS G12C) [13], not above 100 nM; in test [14], not above 100 nM; in the test on HT1080 cells (NRAS), more than 1000 nM.

Take `Cc1c(C(=O)N(C)C)nn2c1CN(c1nc(OC[C@@]34CCCN3C[C@H](F)C4)nc3c(F)c(-c4ccc(F)c5sc(N)c(C#N)c45)c(C(F)(F)F)cc13)CC2` [Compound 501]: the IC50 (in the test on AsPC-1 cells (KRAS G12D) [1]; in the test with SW1900 cells (KRAS G12D) [2]; in the test on HPAC cells (KRAS G12D) [3]; in test [4]; in the test with RKN cells (KRAS G12V) [5]; in the test on H358 cells (KRAS G12C) [6]) was not above 100 nM in each case. Also, the IC50 was 100 to 1000 nM in the test with HCT116 cells (KRAS G13D); 100 to 1000 nM in the test with KP-2 cells (KRAS G12R); 100 to 1000 nM in the test on H1573 cells (KRAS G12A); not above 100 nM in [7]; not above 100 nM with AsPC-1 cells (KRAS G12D) [8]; not above 100 nM with SW1900 cells (KRAS G12D) [9]. Further, the IC50 is 100 to 1000 nM in the test with HPAC cells (KRAS G12D) [10]; not above 100 nM in test [11]; not above 100 nM in the test with RKN cells (KRAS G12V) [12]; not above 100 nM with H358 cells (KRAS G12C) [13]; not above 100 nM in test [14].
